Drawing on patent publication US20260184663A1, “INDENE COMPOUNDS, PHARMACEUTICAL COMPOSITIONS THEREOF, AND THEIR THERAPEUTIC APPLICATIONS” (NucMito Pharmaceuticals co. Ltd., priority 2022, published 2026), this text covers inhibition for six molecules.

Each structure is given as a SMILES string. Like-named read-outs stand apart in the source and are kept apart here.

Assay type in all cases: cell-based
Assay [1] relates to A431 (epidermoid carcinoma). In words: Antiproliferative activity (CCK-8 cell viability), A431. Particulars: Homo sapiens, 72 h, read-out: Antiproliferative activity in cancerous cells, A431 (inhibition of cell growth); for inhibition at 3.3 µM: A-431, Compound concentration: 3.3 μM; for inhibition at 10 µM: A-431, Compound concentration: 10 μM; for inhibition at 30 µM: A-431, Compound concentration: 30 μM. The gist of the method:
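This growth inhibition assay used A431 cells maintained in Dulbecco's modified Eagle's medium plus 10% fetal bovine serum. Cells were seeded in 96-well plates, treated with compound for 72 h at 37° C., and then given 10 μL CCK-8 solution. After a further 4 h, absorbance was read at 450 nm.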

Assay [2] concerns B16F10 (malignant melanoma). Nature of the assay: Antiproliferative activity (CCK-8 cell viability), B16F10. Particulars: Mus musculus, 72 h, read-out: Antiproliferative activity in cancerous cells, B16F10 (inhibition of cell growth); for inhibition at 3.3 µM: B16-F10, Compound concentration: 3.3 μM; for inhibition at 10 µM: B16-F10, Compound concentration: 10 μM; for inhibition at 30 µM: B16-F10, Compound concentration: 30 μM. The essentials: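 Cell growth inhibition was measured in B16F10 malignant melanoma cells with a Cell Counting Kit-8 viability assay. Cells were maintained in DMEM plus 10% fetal bovine serum, seeded at 2,000-5,000 cells/well in 96-well plates, and treated for 72 h at 37° C. Viability was expressed relative to DMSO-treated vehicle control wells.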

In a further assay the test system is HepG2 (liver cancer). Nature of the assay: Antiproliferative activity (CCK-8 cell viability), HepG2. The conditions noted are these: Homo sapiens, 72 h, read-out: Antiproliferative activity in cancerous cells, HepG2 (inhibition of cell growth); for inhibition at 3.3 µM: Compound concentration: 3.3 μM; for inhibition at 10 µM: Compound concentration: 10 μM; for inhibition at 30 µM: Compound concentration: 30 μM. The gist of the method: (§1)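 Growth inhibition graded in bands from percent viability against DMSO vehicle, read as CCK-8 absorbance at 450 nm. Compound tested at 3.3, 10 or 30 μM for 72 h, 37 °C; media contained 10% FBS: DMEM for HepG2/SW480, MEM for HeLa, F-12K for A549.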

Another assay has as its system HeLa (cervical cancer). Nature of the assay: Antiproliferative activity (CCK-8 cell viability), HeLa. The conditions noted are these: Homo sapiens, 72 h, read-out: Antiproliferative activity in cancerous cells, HELA (inhibition of cell growth); for inhibition at 3.3 µM: Compound concentration: 3.3 μM; for inhibition at 10 µM: Compound concentration: 10 μM; for inhibition at 30 µM: Compound concentration: 30 μM. The essentials: as §1

Assay [3] concerns MDA-MB-231 (breast cancer). In words: Antiproliferative activity (CCK-8 cell viability), MDA-MB-231. The conditions noted are these: Homo sapiens, 72 h, read-out: Antiproliferative activity in cancerous cells, MDA-MB-231 (inhibition of cell growth); for inhibition at 3.3 µM: Compound concentration: 3.3 μM; for inhibition at 10 µM: Compound concentration: 10 μM; for inhibition at 30 µM: Compound concentration: 30 μM. The gist of the method: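 Growth inhibition of human MDA-MB-231 breast cancer cells was assessed with a Cell Counting Kit-8. Cells cultured in DMEM plus 10% FBS were seeded at 2,000-5,000 cells/well, treated after attachment, and kept 72 h at 37° C. CCK-8 solution (10 μL) was added for 4 h, and absorbance at 450 nm was compared with DMSO-treated controls.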

The test system of a further assay is SW480 (colon cancer). Nature of the assay: Antiproliferative activity (CCK-8 cell viability), SW480. Particulars: Homo sapiens, 72 h; for inhibition at 3.3 µM: Compound concentration: 3.3 μM; for inhibition at 10 µM: Compound concentration: 10 μM; for inhibition at 30 µM: Compound concentration: 30 μM. The essentials: as §1
For assay [4], the system named is A549 (lung adenocarcinoma). In words: Antiproliferative activity (CCK-8 cell viability), A549. The conditions noted are these: Homo sapiens, 72 h; for inhibition at 3.3 µM: Compound concentration: 3.3 μM; for inhibition at 10 µM: Compound concentration: 10 μM; for inhibition at 30 µM: Compound concentration: 30 μM. The gist of the method: as §1
The mark [5] stands for this setting: read-out: Antiproliferative activity in cancerous cells, SW480 (inhibition of cell growth).
The mark [6] stands for this setting: read-out: Antiproliferative activity in cancerous cells, A549 (inhibition of cell growth).

As to `CC1=C(CC(=O)O)c2cc(F)ccc2/C1=C/c1cccc(COc2ccc(F)c(F)c2)c1` [E9, 2-[(1E)-1-({3-[(3,4-Difluorophenoxy)methyl]phenyl}methylidene)-5-fluoro-2-methyl-1H-inden-3-yl]acetic acid], the inhibition at 3.3 µM in assay [1] was less than 30%; in assay [2], 30 to 50%; in the assay with HepG2 (liver cancer), 30 to 50%; in the assay on HeLa (cervical cancer) it was less than 30%; in assay [3] it was not below 50%; in the assay with SW480 (colon cancer) (setting [5]), not below 50%. The inhibition at 3.3 µM in assay [4] (setting [6]) fell in the range of 30 to 50%. The inhibition at 10 µM in assay [1] is not below 50%; in assay [2], not below 50%; in the assay on HepG2 (liver cancer), not below 50%; with HeLa (cervical cancer), 30 to 50%; in assay [3], not below 50%; with SW480 (colon cancer) (setting [5]) it was not below 50%. The inhibition at 10 µM in assay [4] (setting [6]) was 30 to 50%. Besides, the inhibition at 30 µM (in assay [1]; in assay [2]; in the assay with HepG2 (liver cancer); in the assay on HeLa (cervical cancer); in assay [3]; in the assay on SW480 (colon cancer) (setting [5])) was not below 50% in each case. Also, in assay [4] (setting [6]), the inhibition at 30 µM is not below 50%.
Regarding `CC1=C(CC(=O)O)c2cc(Cl)ccc2/C1=C\c1ccc(Oc2ccc(C(C)C)cc2)cc1` [C84, (Z)-2-(5-Chloro-1-(4-(4-isopropylphenoxy)benzylidene)-2-methyl-1H-inden-3-yl)acetic acid], the inhibition at 3.3 µM (in assay [1]; in assay [2]; with HepG2 (liver cancer); in the assay with HeLa (cervical cancer); in assay [3]; with SW480 (colon cancer) (setting [5])) was not below 50% throughout. In assay [4] (setting [6]), the inhibition at 3.3 µM is not below 50%. For the same molecule, the inhibition at 10 µM (in assay [1]; in assay [2]; with HepG2 (liver cancer); with HeLa (cervical cancer); in assay [3]; in the assay with SW480 (colon cancer) (setting [5])) was not below 50% in each case. Besides, the inhibition at 10 µM in assay [4] (setting [6]) was not below 50%.
Turning to `CC1=C(CC(=O)O)c2cc(Br)ccc2/C1=C\c1ccc(Oc2ccc(Cl)cc2)cc1` [C77, (Z)-2-(5-Bromo-1-(4-(4-chlorophenoxy)benzylidene)-2-methyl-1H-inden-3-yl)acetic acid], the inhibition at 3.3 µM in assay [1] is less than 30%; in assay [2] it was not below 50%; in the assay on HepG2 (liver cancer), 30 to 50%; with HeLa (cervical cancer), not below 50%; in assay [3], not below 50%; in the assay with SW480 (colon cancer) (setting [5]) it was less than 30%. For the same molecule, in assay [4] (setting [6]), the inhibition at 3.3 µM is less than 30%. The inhibition at 10 µM in assay [1] is less than 30%; in assay [2], not below 50%; with HepG2 (liver cancer), not below 50%; with HeLa (cervical cancer), not below 50%; in assay [3], not below 50%; with SW480 (colon cancer) (setting [5]), 30 to 50%. For the same molecule, the inhibition at 10 µM in assay [4] (setting [6]) was not below 50%.
For the molecule `COc1ccc2c(c1)C(CC(=O)O)=C(C)/C2=C/c1ccc(Oc2ccc(Cl)cc2)cc1` [C72, (Z)-2-(1-(4-(4-Chlorophenoxy)benzylidene)-5-methoxy-2-methyl-1H-inden-3-yl)acetic acid], the inhibition at 3.3 µM in assay [1] is 30 to 50%; in assay [2], not below 50%; in the assay with HepG2 (liver cancer) it was less than 30%; with HeLa (cervical cancer), not below 50%; in assay [3] it was 30 to 50%; with SW480 (colon cancer) (setting [5]) it was less than 30%. In addition, the inhibition at 3.3 µM in assay [4] (setting [6]) was less than 30%. The inhibition at 10 µM in assay [1] is 30 to 50%; in assay [2] it was not below 50%; in the assay with HepG2 (liver cancer), less than 30%; in the assay with HeLa (cervical cancer), not below 50%; in assay [3] it was 30 to 50%; in the assay on SW480 (colon cancer) (setting [5]), less than 30%. The inhibition at 10 µM in assay [4] (setting [6]) was less than 30%. Also, the inhibition at 30 µM was less than 30% in the assay on SW480 (colon cancer) (read-out: Antiproliferative activity in cancerous cells, SW480) and 30 to 50% in assay [4] (read-out: Antiproliferative activity in cancerous cells, A549).
With `CC1=C(CC(=O)O)c2cc(Cl)ccc2/C1=C\c1ccc(COCc2ccc(F)cc2)cc1` [B148, (Z)-2-(5-Chloro-1-(4-(((4-fluorobenzyl)oxy)methyl)benzylidene)-2-methyl-1H-inden-3-yl)acetic acid], the inhibition at 3.3 µM in assay [1] is not below 50%; in assay [2], less than 30%; in the assay on HepG2 (liver cancer), less than 30%; in the assay with HeLa (cervical cancer), 30 to 50%; in assay [3], 30 to 50%; in the assay with SW480 (colon cancer) (setting [5]), not below 50%. The inhibition at 3.3 µM in assay [4] (setting [6]) was in the range of 30 to 50%. Moreover, the inhibition at 10 µM was not below 50% in assay [1]; less than 30% in assay [2]; not below 50% in the assay with HepG2 (liver cancer); not below 50% in the assay on HeLa (cervical cancer); 30 to 50% in assay [3]; not below 50% with SW480 (colon cancer) (setting [5]). The inhibition at 10 µM in assay [4] (setting [6]) is not below 50%.
Turning to `CC1=C(CC(=O)O)c2cc(F)ccc2/C1=C\c1ccc(C(=O)c2cc3ccccc3o2)cc1` [C309, (Z)-2-(1-(4-(Benzofuran-2-carbonyl)benzylidene)-5-fluoro-2-methyl-1H-inden-3-yl)acetic acid], the inhibition at 3.3 µM in assay [1] is 30 to 50%; in assay [2] it was less than 30%; with HepG2 (liver cancer), less than 30%; with HeLa (cervical cancer), 30 to 50%; in assay [3], 30 to 50%; with SW480 (colon cancer) (setting [5]), less than 30%. Besides, the inhibition at 3.3 µM in assay [4] (setting [6]) is less than 30%. In addition, the inhibition at 10 µM in assay [1] is not below 50%; in assay [2] it was not below 50%; with HepG2 (liver cancer), not below 50%; in the assay on HeLa (cervical cancer), not below 50%; in assay [3], 30 to 50%; in the assay on SW480 (colon cancer) (setting [5]), not below 50%. The inhibition at 10 µM in assay [4] (setting [6]) is 30 to 50%. The inhibition at 30 µM (in assay [1]; in assay [2]; in the assay with HepG2 (liver cancer); in the assay with HeLa (cervical cancer); in assay [3]; with SW480 (colon cancer) (setting [5])) was not below 50% each time. Moreover, the inhibition at 30 µM in assay [4] (setting [6]) is not below 50%.
